Measured values from US10597542B2, “Methods of applying active components” (HONEYWELL INTERNATIONAL INC., priority 2011, dated 2020).

Assay: Solubility of material samples covered with tr-1233zd or cis-1233zd in vials (Examples 8-13)
Conditions: for Amount of heparin dissolved: remained clear overnight
From the text: (§1) Test samples of commercial acrylic plastic sheet cut into ¼″×2″ piece were placed into 20 cc vials with septum screw cap. Solvents (tr-1233zd & cis-1233zd) were slowly added by a syringe to cover the entire plastic sample inside the vial. The purpose was to observe if any degradation happens to the plastic.
as §1, with “high impact styrene” for “acrylic”
Test samples of commercial acrylonitrile-butadiene-styrene (ABS) sheet cut into ¼″×2″ piece were placed into 20 cc vials with septum screw cap. Solvents (tr-1233zd & cis-1233zd) were slowly added by a syringe to cover the entire plastic sample inside the vial.
The experiment in Example 8 is repeated with commercial polycarbonate material.
The experiment of Example 8 was repeated with commercial Dow Polaroid™ Au-608-B acrylic material. This material is used in various coatings.
The experiment of Example 8 was repeated with blood anti-coagulant material Heparin, which is used as a coating in medical devices.

Amount of heparin dissolved (cis-1233zd with 2 wt % methanol): 1.19 wt %
Amount of heparin dissolved (tr-1233zd with 2 wt % methanol): 0.794 wt %
Substance: Heparin
Solubility / effect of solvent on the material: None of the solvents could dissolve the material
